# Legend:
# Assay type in all cases: in vivo
# [1] = test system: Echinochloa crus-galli (ECHCG); test: Pre-emergence herbicidal glasshouse test, Echinochloa crus-galli (ECHCG); settings: 500 g/h, evaluated after 13 days
# Summary of the method: (§1)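 Plants sprayed 1 day (pre-emergence) or 8 days (post-emergence) after sowing, at 500 g/h unless indicated, in acetone/water (50:50) with 0.5% Tween 20. Glasshouse 24/16 °C, 14 h light, 65% humidity. Damage scored at 13 days on a five-point scale (5=80-100% to 1=0-19%).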
# [2] = Comparative experiment, compound 1.049 versus Compound C1, (%) phytotoxicity observed (Table B2); settings: rate 31 g/ha
# Experimental: Seeds of a variety of test species are sown in standard soil in pots (Lolium perenne (LOLPE), Amaranthus retoflexus (AMARE), Abutilon theophrasti (ABUTH), Setaria faberi (SETFA), Echinochloa crus-galli (ECHCG), Ipomoea hederacea (IPOHE)). After cultivation for one day (pre-emergence) or after 8 days cultivation (post-emergence) under controlled conditions in a glasshouse (at 24/16° C., day/night; 14 hours light; 65% humidity), the plants are sprayed with an aqueous spray solution derived from the formulation of the technical active ingredient in acetone/water (50:50) solution containing 0.5% Tween 20 (polyoxyethelyene sorbitan monolaurate, CAS RN 9005-64-5). Compounds are applied at […] unless otherwise indicated. The test plants are then grown in a glasshouse under controlled conditions in a glasshouse (at 24/16° C., day/night; 14 hours light; 65% humidity) and watered twice daily. After 13 days for pre and post-emergence, the test is evaluated for the percentage damage caused to the plant. The biological activities are shown in the following table on a five point scale (5=80-100%; 4=60-79%; 3=40-59%; 2=20-39%; 1=0-19%). [table]
# [3] = test system: Abutilon theophrasti (ABUTH); test: Post-emergence herbicidal glasshouse test, Abutilon theophrasti (ABUTH); settings: 500 g/h, evaluated after 13 days
# Summary of the method: as §1
# [4] = test system: Amaranthus retoflexus (AMARE); test: Post-emergence herbicidal glasshouse test, Amaranthus retoflexus (AMARE); settings: 500 g/h, evaluated after 13 days
# Summary of the method: as §1
# [5] = test system: Ipomoea hederacea (IPOHE); test: Pre-emergence herbicidal glasshouse test, Ipomoea hederacea (IPOHE); settings: 500 g/h, evaluated after 13 days
# Summary of the method: as §1
# [6] = test system: Ipomoea hederacea (IPOHE); test: Post-emergence herbicidal glasshouse test, Ipomoea hederacea (IPOHE); settings: 500 g/h, evaluated after 13 days
# Summary of the method: as §1
# [7] = test system: Amaranthus retoflexus (AMARE); test: Pre-emergence herbicidal glasshouse test, Amaranthus retoflexus (AMARE); settings: 500 g/h, evaluated after 13 days
# Summary of the method: as §1
# [8] = test system: Abutilon theophrasti (ABUTH); test: Pre-emergence herbicidal glasshouse test, Abutilon theophrasti (ABUTH); settings: 500 g/h, evaluated after 13 days
# Summary of the method: as §1
# [9] = test system: Echinochloa crus-galli (ECHCG); test: Post-emergence herbicidal glasshouse test, Echinochloa crus-galli (ECHCG); settings: 500 g/h, evaluated after 13 days
# Summary of the method: as §1
# [10] = test system: Setaria faberi (SETFA); test: Post-emergence herbicidal glasshouse test, Setaria faberi (SETFA); settings: 500 g/h, evaluated after 13 days
# Summary of the method: as §1
# [11] = test system: Setaria faberi (SETFA); test: Pre-emergence herbicidal glasshouse test, Setaria faberi (SETFA); settings: 500 g/h, evaluated after 13 days
# Summary of the method: as §1
compound,measurement,setting,value
CN(C)C=Nc1c(C(F)(F)F)ccc(C(=O)Nc2nnnn2C)c1Cl [Compound 1.049],"PRE Application ECHCG, percentage damage (five point scale)",[1],5 (5=80-100%)
same,"(%) phytotoxicity observed, POST Application ECHCG","[2]; Echinochloa crus-galli (ECHCG), POST application",90%
same,"(%) phytotoxicity observed, PRE Application ECHCG","[2]; Echinochloa crus-galli (ECHCG), PRE application",90%
same,"(%) phytotoxicity observed, POST Application SETFA","[2]; Setaria faberi (SETFA), POST application",90%
same,"(%) phytotoxicity observed, PRE Application SETFA","[2]; Setaria faberi (SETFA), PRE application",90%
same,"POST Application ABUTH, percentage damage (five point scale)",[3],5 (5=80-100%)
same,"POST Application AMARE, percentage damage (five point scale)",[4],5 (5=80-100%)
same,"PRE Application IPOHE, percentage damage (five point scale)",[5],5 (5=80-100%)
same,"POST Application IPOHE, percentage damage (five point scale)",[6],5 (5=80-100%)
same,"PRE Application AMARE, percentage damage (five point scale)",[7],5 (5=80-100%)
same,"PRE Application ABUTH, percentage damage (five point scale)",[8],5 (5=80-100%)
same,"POST Application ECHCG, percentage damage (five point scale)",[9],5 (5=80-100%)
same,"POST Application SETFA, percentage damage (five point scale)",[10],5 (5=80-100%)
same,"PRE Application SETFA, percentage damage (five point scale)",[11],5 (5=80-100%)
